According to publication PMC7582905, “Effect of Disulfide Cyclization of Ultrashort Cationic Lipopeptides on Antimicrobial Activity and Cytotoxicity” (International Journal of Molecular Sciences, 2020):
Converted amounts (≈) assume the structure as drawn. Read-outs that look alike come from different tables or passages of the source. Where a SMILES comes first, the peptide text is derived from it. Bridges are numbered along the chain shown (N, C = ends). The star is where a group is joined. Palmitoyl = CCCCCCCCCCCCCCCC(=O)*

Experiments:
[1] = system: human cervical adenocarcinoma cell line (HeLa S3); test: MTT assay; type: cell-based; details: 24 h incubation at 37 °C, six replicates per concentration, repeated at least twice
Procedure: (§1) To assess the cytotoxicity of the test lipopeptides (IC50), the classic MTT assay on 96-well polystyrene plates was performed for human keratinocytes (HaCaT) and human cervical adenocarcinoma cell line (HeLa S3) acquired from the ATCC. The assay utilizes colorimetric determination of the cell metabolic activity and the color intensity reflects the number of live cells that can be measured spectrophotometrically. The cell line was cultured in a Dulbecco’s modified Eagle Medium (Invitrogen) supplemented with 10% fetal bovine serum (v/v), 100 units/mL of penicillin, 100 μg/mL of streptomycin, and 2 mM l-glutamine and was stored at 37 °C in a humidified 5% CO2 incubator. Briefly, a day after plating of 500 cells per well, a series of concentrations (0.1–200 μg/mL) of the test compounds were applied. DMSO was added to the control cells at a final concentration of 1.0% (v/v), which was related to the maximal concentration of the solvent compounds used in the experiment. After 24 h of incubation with the lipopeptides at 37 °C in a humidified 5% CO2 incubator, a medium containing 1 mg/mL of MTT (3-(4,5-dimethylthiazol-2-yl)-2,5-diphenyltetrazolium bromide) was added to the wells up to a final concentration of 0.5 mg/mL. Subsequently, the plates were incubated at 37 °C for 4 h. Then, the medium was removed by suction, and the formazan product was solubilized with DMSO. The background absorbance at 630 nm was subtracted from that at 570 nm for each well (Epoch, BioTek Instruments, Winooski, VT, USA). Six replicates were conducted for each concentration. All experiments were repeated at least twice and the resulting IC50 values were calculated with a GraFit 7 software (v. 7.0, Erithacus, Berkley, CA, USA).

[2] = system: human keratinocytes (HaCaT); test: MTT assay; type: cell-based; details: 24 h incubation at 37 °C, six replicates per concentration, repeated at least twice
Procedure: as §1

[3] = system: Staphylococcus aureus ATCC 25923; details: values marked *: performed by the group in the previous study; ref [29]; cited from earlier work
From the text: Table 2 Antimicrobial activity of lipopeptides. | column: MIC (μg/mL) / S. aureus

[4] = system: Staphylococcus aureus ATCC 25923; details: values marked *: performed by the group in the previous study; ref [29]; cited from earlier work; remark: listed apart in the source
From the text: Table 3 Antibiofilm activity of lipopeptides. | column: MBEC (μg/mL) / S. aureus

keratinocytes = details: reported in the literature; ref [13]; cited from earlier work
From the text: However, an identical hemolysis pattern is consistent only with peptides L4, C4, L7, and C7. A common feature of these compounds is the presence of arginine residue in the second and third position, which differentiates them from the rest of compounds used in this study. Overall effect of disulfide cyclization on hemolysis seems to be dependent on arginine(s) position. In general, disulfide cyclization of lipopeptides results in the reduced cytotoxicity a ...

[5] = system: E. coli ML-35 (ATCC 43827); type: cell-based, Escherichia coli
[6] = system: Staphylococcus aureus ATCC 25923; type: cell-based
Summary of the method: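 MBEC by resazurin: lowest concentration giving ≤10 ± 0.5% reduction relative to positive (100%) and negative (0%) controls, A570/A600 read 1 h after dye addition. Preformed 24 h biofilms, 24 h compound exposure at 37 °C, 0.5–256 μg/mL; triplicate.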

[7] = system: Staphylococcus aureus ATCC 25923; type: cell-based; remark: listed apart in the source
Summary of the method: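 Visual growth inhibition defines the MIC here, read after 37 °C incubation of 18 h (E. coli, Mueller–Hinton broth, 5 × 10^5 CFU/mL) or 24 h (Candida spp., RPMI-1640 with 2% D-glucose, 2 × 10^3 CFU/mL). Test range was 0.5–256 μg/mL lipopeptide.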

## CCCCCCCCCCCCCCCC(=O)N[C@@H](CCCCN)C(=O)N[C@@H](CCCCN)C(=O)N[C@@H](CCCCN)C(N)=O [L1, C16-KKK-NH2]
[1]
  HeLa IC50: 3.9 ± 1.1 µg/mL
[2]
  HaCaT IC50: 5.2 ± 0.6 µg/mL
[3]
  MIC S. aureus: 32 * μg/mL
[4]
  MBEC S. aureus: 64 * μg/mL
keratinocytes
  toxicity against keratinocytes: 3.2 µg/mL

## CCCCCCCCCCCCCCCC(=O)N[C@H]1CSSC[C@@H](C(N)=O)NC(=O)[C@H](CCCCN)NC(=O)[C@H](CCCCN)NC(=O)[C@H](CCCNC(=N)N)NC(=O)[C@H](CCCCN)NC1=O [C4, C16-CKRKKC-NH2] (Palmitoyl-CKRKKC-NH2; disulfide 1-6)
[5]
  MIC against E. coli ML-35: 8 µg/mL (≈ 8 µM)
[1]
  HeLa IC50: 27.5 ± 3.4 µg/mL
[2]
  HaCaT IC50: 33.8 ± 3.1 µg/mL
[6]; ATCC 25923, 24 h
  MBEC S. aureus: 64 µg/mL
[7]; ATCC 25923, 18 h
  MIC S. aureus: 16 µg/mL (≈ 16 µM)

## CCCCCCCCCCCCCCCC(=O)N[C@@H](CCCNC(=N)N)C(=O)N[C@@H](CCCNC(=N)N)C(=O)N[C@@H](CCCCN)C(=O)N[C@@H](CCCCN)C(N)=O [L7, C16-RRKK-NH2] (Palmitoyl-RRKK-NH2)
[1]
  HeLa IC50: 3.0 ± 0.4 µg/mL
[2]
  HaCaT IC50: 8.1 ± 1.1 µg/mL
[6]; ATCC 25923, 24 h
  MBEC S. aureus: 128 µg/mL
[7]; ATCC 25923, 18 h
  MIC S. aureus: 4 µg/mL (≈ 4.85 µM)

## CCCCCCCCCCCCCCCC(=O)N[C@H]1CSSC[C@@H](C(N)=O)NC(=O)[C@H](CCCNC(=N)N)NC(=O)[C@H](CCCCN)NC(=O)[C@H](CCCCN)NC(=O)[C@H](CCCCN)NC1=O [C6, C16-CKKKRC-NH2] (Palmitoyl-CKKKRC-NH2; disulfide 1-6)
[1]
  HeLa IC50: 30.4 ± 2.5 µg/mL
[2]
  HaCaT IC50: 45.7 ± 13.5 µg/mL
[3]
  MIC S. aureus: 16 * μg/mL
[4]
  MBEC S. aureus: 64 * μg/mL

## CCCCCCCCCCCCCCCC(=O)N[C@@H](CCCCN)C(=O)N[C@@H](CCCCN)C(=O)N[C@@H](CCCCN)C(=O)N[C@@H](CCCCN)C(N)=O [L2, C16-KKKK-NH2] (Palmitoyl-KKKK-NH2)
[5]
  MIC against E. coli ML-35: 4 µg/mL (≈ 5.21 µM)
[1]
  HeLa IC50: 12.8 ± 1.1 µg/mL
[2]
  HaCaT IC50: 23.5 ± 1.3 µg/mL
[6]; ATCC 25923, 24 h
  MBEC S. aureus: 64 µg/mL
[7]; ATCC 25923, 18 h
  MIC S. aureus: 16 µg/mL (≈ 20.8 µM)

## CCCCCCCCCCCCCCCC(=O)N[C@H]1CSSC[C@@H](C(N)=O)NC(=O)[C@H](CCCCN)NC(=O)[C@H](CCCCN)NC(=O)[C@H](CCCCN)NC(=O)[C@H](CCCCN)NC1=O [C2, C16-CKKKKC-NH2] (Palmitoyl-CKKKKC-NH2; disulfide 1-6)
[5]
  MIC against E. coli ML-35: 8 µg/mL (≈ 8.23 µM)
[1]
  HeLa IC50: 17.9 ± 2.1 µg/mL
[2]
  HaCaT IC50: 26.9 ± 1.9 µg/mL
[6]; 24 h biofilm on polystyrene plates, 24 h exposure at 37 °C, resazurin, triplicate
  MBEC S. aureus: 64 µg/mL
[7]; broth microdilution (CLSI), MHB, 5 × 10^5 CFU/mL, 37 °C, 18 h, visual, triplicate
  MIC S. aureus: 32 µg/mL (≈ 32.9 µM)

## CCCCCCCCCCCCCCCC(=O)N[C@H]1CSSC[C@@H](C(N)=O)NC(=O)[C@H](CCCCN)NC(=O)[C@H](CCCCN)NC(=O)[C@H](CCCNC(=N)N)NC(=O)[C@H](CCCNC(=N)N)NC1=O [C7, C16-CRRKKC-NH2] (Palmitoyl-CRRKKC-NH2; disulfide 1-6)
[1]
  HeLa IC50: 20.9 ± 2.1 µg/mL
[2]
  HaCaT IC50: 21.3 ± 8.2 µg/mL
[6]; ATCC 25923, 24 h
  MBEC S. aureus: 128 µg/mL
[7]; ATCC 25923, 18 h
  MIC S. aureus: 8 µg/mL (≈ 7.78 µM)

## CCCCCCCCCCCCCCCC(=O)N[C@@H](CCCCN)C(=O)N[C@@H](CCCNC(=N)N)C(=O)N[C@@H](CCCCN)C(=O)N[C@@H](CCCCN)C(N)=O [L4, C16-KRKK-NH2] (Palmitoyl-KRKK-NH2)
[5]
  MIC against E. coli ML-35: 4 µg/mL (≈ 5.02 µM)
[1]
  HeLa IC50: 3.0 ± 0.6 µg/mL
[2]
  HaCaT IC50: 4.3 ± 0.9 µg/mL
[6]; ATCC 25923, 24 h
  MBEC S. aureus: 64 µg/mL
[7]; ATCC 25923, 18 h
  MIC S. aureus: 8 µg/mL (≈ 10 µM)

## CCCCCCCCCCCCCCCC(=O)N[C@@H](CCCCN)C(=O)N[C@@H](CCCCN)C(=O)N[C@@H](CCCCN)C(=O)N[C@@H](CCCNC(=N)N)C(N)=O [L6, C16-KKKR-NH2] (Palmitoyl-KKKR-NH2)
[1]
  HeLa IC50: 3.6 ± 0.5 µg/mL
[2]
  HaCaT IC50: 7.5 ± 0.8 µg/mL
[3]
  MIC S. aureus: 16 * μg/mL
[4]
  MBEC S. aureus: 32 * μg/mL

## CCCCCCCCCCCCCCCC(=O)N[C@H]1CSSC[C@@H](C(N)=O)NC(=O)[C@H](CCCCN)NC(=O)[C@H](CCCCN)NC(=O)[C@H](CCCCN)NC1=O [C1, C16-CKKKC-NH2] (Palmitoyl-CKKKC-NH2; disulfide 1-5)
[1]
  HeLa IC50: 25.5 ± 2.9 µg/mL
[2]
  HaCaT IC50: 23.6 ± 6.0 µg/mL
[3]
  MIC S. aureus: 8 * μg/mL
[4]
  MBEC S. aureus: 64 * μg/mL

## CCCCCCCCCCCCCCCC(=O)N[C@H]1CSSC[C@@H](C(N)=O)NC(=O)[C@H](CCCCN)NC(=O)[C@H](CCCCN)NC(=O)[C@H](CCCCN)NC(=O)[C@H](CCCNC(=N)N)NC1=O [C3, C16-CRKKKC-NH2] (Palmitoyl-CRKKKC-NH2; disulfide 1-6)
[1]
  HeLa IC50: 38.8 ± 4.4 µg/mL
[2]
  HaCaT IC50: 36.8 ± 2.7 µg/mL
[3]
  MIC S. aureus: 8 * μg/mL
[4]
  MBEC S. aureus: 128 * μg/mL

## CCCCCCCCCCCCCCCC(=O)N[C@@H](CCCCN)C(=O)N[C@@H](CCCCN)C(=O)N[C@@H](CCCNC(=N)N)C(=O)N[C@@H](CCCCN)C(N)=O [L5, C16-KKRK-NH2] (Palmitoyl-KKRK-NH2)
[1]
  HeLa IC50: 6.2 ± 2.7 µg/mL
[2]
  HaCaT IC50: 2.4 ± 0.4 µg/mL
[3]
  MIC S. aureus: 16 * μg/mL
[4]
  MBEC S. aureus: 32 * μg/mL

## CCCCCCCCCCCCCCCC(=O)N[C@H]1CSSC[C@@H](C(N)=O)NC(=O)[C@H](CCCCN)NC(=O)[C@H](CCCNC(=N)N)NC(=O)[C@H](CCCCN)NC(=O)[C@H](CCCCN)NC1=O [C5, C16-CKKRKC-NH2] (Palmitoyl-CKKRKC-NH2; disulfide 1-6)
[1]
  HeLa IC50: 21.9 ± 4.5 µg/mL
[2]
  HaCaT IC50: 12.9 ± 4.6 µg/mL
[3]
  MIC S. aureus: 8 * μg/mL
[4]
  MBEC S. aureus: 128 * μg/mL

## CCCCCCCCCCCCCCCC(=O)N[C@@H](CCCNC(=N)N)C(=O)N[C@@H](CCCCN)C(=O)N[C@@H](CCCCN)C(=O)N[C@@H](CCCCN)C(N)=O [L3, C16-RKKK-NH2] (Palmitoyl-RKKK-NH2)
[1]
  HeLa IC50: 8.4 ± 1.7 µg/mL
[2]
  HaCaT IC50: 23.6 ± 3.4 µg/mL
[3]
  MIC S. aureus: 16 * μg/mL
[4]
  MBEC S. aureus: 64 * μg/mL
